Source: PubChem BioAssay (NCI)
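Protocol summary: plate cells (96-well), add compound at 5 concentrations, incubate 48 h, interpolate endpoints linearly. GI50 = concentration required for 50% inhibition of growth. TGI: concentration producing complete growth inhibition.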 Where a SMILES comes first, the peptide text is derived from it. [ ]: non-standard residue; d: D form. The star is where a group is joined. Bn2Val = CC(C)[C@@H](C(=O)*)N(Cc1ccccc1)Cc1ccccc1; NMeV = CN[C@H](C(=O)O)C(C)C; X29 = COc1ccc(CN*)c(OC)c1; dNMeA = CN[C@H](C)C(=O)O

Tests used:
Test in all cases: NCI anticancer screen, dose series, 48 h; in the data active means GI50 below about 0.43 µM; inactive means the rest
[1] = system: ACHN renal
[2] = system: CCRF-CEM leukemia
[3] = system: COLO 205 colon
[4] = system: K-562 leukemia
[5] = system: NCI/ADR-RES ovarian
[6] = system: OVCAR-8 ovarian
[7] = system: PC-3 prostate
[8] = system: SF-268 CNS
[9] = system: SNB-75 CNS
[10] = system: UO-31 renal
[11] = system: MALME-3M melanoma

CO[C@H]1O[C@@H]2CO[C@@H](c3ccccc3)O[C@H]2[C@@H]2C/C=C\CCC[C@@]12O
88.3 µM: TGI [5]
77.1 µM: TGI [7]
33.6 µM: TGI [3]
> 100 µM: TGI [2] | TGI [6] | TGI [9] | TGI [10]
38.1 µM: TGI [1]
43.3 µM: TGI [8]
51.1 µM: TGI [4]

NC(Cc1c[nH]c2cc([N+](=O)[O-])ccc12)C(=O)O (stereo not given)
> 100 µM: TGI [1] | TGI [3] | TGI [4] | TGI [11] | TGI [5] | TGI [6] | TGI [7] | TGI [8] | TGI [9] | TGI [10]

COc1ccc(CNC(=O)[C@@H]2CCCN2C(=O)[C@@H](C)N(C)C(=O)[C@H](C(C)C)N(C)C(=O)[C@@H](NC(=O)[C@H](C(C)C)N(Cc2ccccc2)Cc2ccccc2)C(C)C)c(OC)c1 (Bn2Val-V[NMeV][dNMeA]P-X29)
13.9 µM: TGI [1]
7.26 µM: TGI [9]
36.7 µM: TGI [11]
> 100 µM: TGI [4] | TGI [8]
12 µM: TGI [10]
5.09 µM: TGI [3]
10.1 µM: TGI [7]
12.3 µM: TGI [5]
57.6 µM: TGI [6]

CCN(CC)CCCNC(=O)c1cc2cc(NC(=O)c3cc4cc([N+](=O)[O-])ccc4[nH]3)ccc2[nH]1
> 100 µM: TGI [1] | TGI [3] | TGI [4] | TGI [5] | TGI [6] | TGI [7] | TGI [8] | TGI [9] | TGI [10]

CN(C)c1ccc(/C=C/C(=O)N[C@@H]2C(=O)N3[C@@H]2SC(C)(C)[C@@H]3C(=O)O)cc1
> 100 µM: TGI [1] | TGI [2] | TGI [3] | TGI [4] | TGI [5] | TGI [6] | TGI [7] | TGI [8] | TGI [9] | TGI [10]

C=C(C)C1CC/C(C)=C/CC[C@]2(C)O[C@@H]2CCC2=CC1OC2=O (stereo not given in full)
inactive: GI50 [2] 10.3 µM | GI50 [3] > 100 µM | GI50 [4] 14.6 µM | GI50 [5] > 100 µM | GI50 [6] > 100 µM | GI50 [7] 48.9 µM | GI50 [8] > 100 µM | GI50 [10] 12.7 µM
21.9 µM: TGI [2]
27.7 µM: TGI [4]
25.3 µM: TGI [10]
> 100 µM: TGI [3] | TGI [5] | TGI [6] | TGI [7] | TGI [8]

CN(C(=O)c1ccc2c(c1)sc1c(=O)n(C)c3ccccc3c12)c1ccccc1
> 100 µM: TGI [1] | TGI [2] | TGI [3] | TGI [4] | TGI [11] | TGI [5] | TGI [6] | TGI [7] | TGI [9] | TGI [10]

Cn1c([C@H](C#N)C(=O)c2cc(O)ccc2[N+](=O)[O-])nc2ccccc21
> 100 µM: TGI [1] | TGI [2] | TGI [3] | TGI [11] | TGI [5] | TGI [6] | TGI [7] | TGI [8] | TGI [9] | TGI [10]

CN1N=C(c2ccncc2)OC1c1cccc(C(F)(F)F)c1 (stereo not given)
> 100 µM: TGI [1] | TGI [2] | TGI [3] | TGI [4] | TGI [5] | TGI [6] | TGI [7] | TGI [8] | TGI [10]
87.3 µM: TGI [9]

COc1ccc2c(c1)OCCc1cn[nH]c1-2
> 100 µM: TGI [2] | TGI [3] | TGI [4] | TGI [11] | TGI [5] | TGI [6] | TGI [8] | TGI [9] | TGI [10]

Cc1cccc2nc3c(=O)[nH]c(=O)nc-3n(C)c12
> 100 µM: TGI [1] | TGI [2] | TGI [3] | TGI [4] | TGI [5] | TGI [6] | TGI [7] | TGI [8] | TGI [9]
38.5 µM: TGI [11]

CC(C)(O)C1CC[C@]2(C)[C@H]3CC[C@@H]4[C@@]5(C)CCCC(C)(C)[C@@H]5CC[C@@]4(C)[C@]3(C)CC[C@@H]12 (stereo not given in full)
> 100 µM: TGI [1] | TGI [2] | TGI [3] | TGI [11] | TGI [5] | TGI [6] | TGI [7] | TGI [8]

O=C1C=C2CCC[C@H]3OC(=O)C[C@@]23CC1
> 100 µM: TGI [1] | TGI [3] | TGI [4] | TGI [11] | TGI [5] | TGI [7] | TGI [8]

[O-][n+]1c(CN2CCCCC2)nc2cccc3c2c1-c1ccccc1-3
98.2 µM: TGI [6]
84.6 µM: TGI [5]
70.5 µM: TGI [1]
29 µM: TGI [11]
> 100 µM: TGI [4] | TGI [7]
50.2 µM: TGI [9]
26.3 µM: TGI [10]
64.3 µM: TGI [3]

CS(=O)(=O)c1nc(-c2cc3c(c(S(C)(=O)=O)n2)CCC3)cc2c1CCCC2
24.4 µM: TGI [8]
23.4 µM: TGI [9]
57.9 µM: TGI [6]
> 100 µM: TGI [1] | TGI [2] | TGI [3] | TGI [4] | TGI [5] | TGI [7] | TGI [10]

Cc1c(OCc2ccccc2)c(=O)ccn1CCc1c[nH]c2ccccc12
64.1 µM: TGI [8]
32.1 µM: TGI [3]
88.3 µM: TGI [11]
> 100 µM: TGI [1] | TGI [2] | TGI [5] | TGI [6] | TGI [7] | TGI [10]

Cc1ccc(-c2cc(O)c3nc4ccccc4n3c2)cc1
> 100 µM: TGI [2] | TGI [3] | TGI [4] | TGI [11] | TGI [5] | TGI [6] | TGI [7] | TGI [8] | TGI [9] | TGI [10]

COC(=O)C(=O)C(C(=O)C(=O)Nc1cccc([N+](=O)[O-])c1)c1nc2ccc(Cl)cc2[nH]c1=O (stereo not given)
> 100 µM: TGI [1] | TGI [2] | TGI [3] | TGI [5] | TGI [6] | TGI [7] | TGI [8] | TGI [9] | TGI [10]

Nc1cccc(S(=O)(=O)Nc2nnc(S(N)(=O)=O)s2)c1
> 100 µM: TGI [1] | TGI [3] | TGI [4] | TGI [11] | TGI [5] | TGI [6] | TGI [7] | TGI [8] | TGI [9] | TGI [10]

COC(=O)CCc1c(Cc2ccc[nH]2)[nH]c(C(=O)OCc2ccccc2)c1C
> 100 µM: TGI [2]
52.5 µM: TGI [6]
60 µM: TGI [7]
32.9 µM: TGI [3]
52.1 µM: TGI [5]
38.3 µM: TGI [11]
70.6 µM: TGI [1]
53.7 µM: TGI [8]
58.5 µM: TGI [4]

CS[C@]12[C@@H]3C(=O)N(C)C(=O)[C@@H]3[C@](C)(C(=O)N1C)C(=O)N2c1ccccc1
> 100 µM: TGI [1] | TGI [2] | TGI [3] | TGI [11] | TGI [5] | TGI [6] | TGI [7] | TGI [8] | TGI [9] | TGI [10]
